{"source": "patent US4285942A", "about": "“Cyclododecanone oximes” (Egyt Gyogyszervegyeszeti Gyar, priority 1978, dated 1981)", "data": [{"test_system": "not listed separately", "experiment": "Nicotine-lethality inhibiting effect in mice, oral (method of Stone)", "type": "in vivo", "settings": "mouse, in vivo, LD50 and ED50 in mice, read-out: Therapeutic index", "experimental": "(§1) The nicotine-lethality inhibiting effect was determined on mice by the method of Stone [C. A. Stone et al.: Arch. Intern.", "values": [{"compound": "CC(CON=C1CCCCCCCCCCC1)CN(C)C", "note": "(racemic) [Example 4, D,L-1-(3'-Dimethylamino-2'-methylpropoxyimino)cyclododecane]", "selectivity ratio": 14.8}, {"compound": "CN(C)CCCON=C1CCCCCCCCCCC1", "note": "[Example 1, 1-(Dimethylamino-propoxyimino)cyclododecane]", "selectivity ratio": 14.4}, {"compound": "CN(C)CCON=C1CCCCCCCCCCC1", "note": "[Example 2, 1-(Dimethylamino-ethoxyimino)cyclododecane]", "selectivity ratio": 27.9}, {"compound": "CC(C)N(CCON=C1CCCCCCCCCCC1)C(C)C", "note": "[Example 5, 1-(Diisopropylamino-ethoxyimino)cyclododecane]", "selectivity ratio": 80}, {"compound": "c1ccc(CN2CCN(CCCON=C3CCCCCCCCCCC3)CC2)cc1", "note": "[Example 6, 1-(N-Benzylpiperazinyl-propoxyimino)cyclododecane]", "selectivity ratio": 5}, {"compound": "CN1CCN(CCCON=C2CCCCCCCCCCC2)CC1", "note": "[Example 7, 1-(N-methylpiperazinyl-propoxyimino)cyclododecane]", "selectivity ratio": 16.2}, {"compound": "CCN(CC)CC(C)CON=C1CCCCCCCCCCC1", "note": "(stereo not shown) [Example 11, 1-(3'-Diethylamino-2'-methyl-propoxyimino)cyclododecane]", "selectivity ratio": 5}, {"compound": "CC(C)N(CCCON=C1CCCCCCCCCCC1)C(C)C", "note": "[Example 12, 1-(Diisopropylamino-propoxyimino)cyclododecane]", "selectivity ratio": 5}]}, {"test_system": "nicotine-lethality", "experiment": "Nicotine-lethality inhibiting effect in mice, oral (method of Stone)", "type": "in vivo", "settings": "Mus musculus, nicotine-lethality inhibition, mice, groups of ten animals", "experimental": "as §1", "units": {"ED50": "mg/kg"}, "values": [{"compound": "CC(CON=C1CCCCCCCCCCC1)CN(C)C", "note": "(racemic) [Example 4, D,L-1-(3'-Dimethylamino-2'-methylpropoxyimino)cyclododecane]", "ED50": 46}, {"compound": "OC(CCN1CCCCC1)(c1ccccc1)C1CCCCC1", "note": "(stereo not shown) [Artane, 1-cyclohexyl-1-phenyl-3-piperidino-propane-1-ol, reference compound]", "ED50": 40}, {"compound": "CN(C)CCCON=C1CCCCCCCCCCC1", "note": "[Example 1, 1-(Dimethylamino-propoxyimino)cyclododecane]", "ED50": 39}, {"compound": "CN(C)CCON=C1CCCCCCCCCCC1", "note": "[Example 2, 1-(Dimethylamino-ethoxyimino)cyclododecane]", "ED50": 28}, {"compound": "CC(C)N(CCON=C1CCCCCCCCCCC1)C(C)C", "note": "[Example 5, 1-(Diisopropylamino-ethoxyimino)cyclododecane]", "ED50": 10}, {"compound": "c1ccc(CN2CCN(CCCON=C3CCCCCCCCCCC3)CC2)cc1", "note": "[Example 6, 1-(N-Benzylpiperazinyl-propoxyimino)cyclododecane]", "ED50": 180}, {"compound": "CN1CCN(CCCON=C2CCCCCCCCCCC2)CC1", "note": "[Example 7, 1-(N-methylpiperazinyl-propoxyimino)cyclododecane]", "ED50": 68}, {"compound": "CCN(CC)CC(C)CON=C1CCCCCCCCCCC1", "note": "(stereo not shown) [Example 11, 1-(3'-Diethylamino-2'-methyl-propoxyimino)cyclododecane]", "ED50": 80}, {"compound": "CC(C)N(CCCON=C1CCCCCCCCCCC1)C(C)C", "note": "[Example 12, 1-(Diisopropylamino-propoxyimino)cyclododecane]", "ED50": 130}]}, {"test_system": "not listed separately", "experiment": "in vivo", "settings": "mouse, mice, oral", "units": {"LD50": "mg/kg"}, "values": [{"compound": "CC(CON=C1CCCCCCCCCCC1)CN(C)C", "note": "(racemic) [Example 4, D,L-1-(3'-Dimethylamino-2'-methylpropoxyimino)cyclododecane]", "LD50": 680}, {"compound": "CN(C)CCCON=C1CCCCCCCCCCC1", "note": "[Example 1, 1-(Dimethylamino-propoxyimino)cyclododecane]", "LD50": 560}, {"compound": "CN(C)CCON=C1CCCCCCCCCCC1", "note": "[Example 2, 1-(Dimethylamino-ethoxyimino)cyclododecane]", "LD50": 780}, {"compound": "CC(C)N(CCON=C1CCCCCCCCCCC1)C(C)C", "note": "[Example 5, 1-(Diisopropylamino-ethoxyimino)cyclododecane]", "LD50": 800}, {"compound": "c1ccc(CN2CCN(CCCON=C3CCCCCCCCCCC3)CC2)cc1", "note": "[Example 6, 1-(N-Benzylpiperazinyl-propoxyimino)cyclododecane]", "LD50": 900}, {"compound": "CN1CCN(CCCON=C2CCCCCCCCCCC2)CC1", "note": "[Example 7, 1-(N-methylpiperazinyl-propoxyimino)cyclododecane]", "LD50": 1100}, {"compound": "CCN(CC)CC(C)CON=C1CCCCCCCCCCC1", "note": "(stereo not shown) [Example 11, 1-(3'-Diethylamino-2'-methyl-propoxyimino)cyclododecane]", "LD50": 400}, {"compound": "CC(C)N(CCCON=C1CCCCCCCCCCC1)C(C)C", "note": "[Example 12, 1-(Diisopropylamino-propoxyimino)cyclododecane]", "LD50": 650}]}, {"test_system": "isolated rat ileum", "experiment": "Spasmolytic effect on smooth muscle, isolated rat ileum (method of Brock), papaverine as reference", "settings": "relative to papaverine", "experimental": "The spasmolytic effect on smooth muscle was determined on isolated rat ileum according to the method of Brock et al. [H. Brock, J. Ceks, D. Lorenz: Arch. Exper. Path. u. Pharmacol. 215, 492/1952/] by using papaverine as the reference substance. In order to characterize the efficiency of the individual compounds their relative effect with respect to papaverine are enumerated in Table 2 below.", "values": [{"compound": "CC(CON=C1CCCCCCCCCCC1)CN(C)C", "note": "(racemic) [Example 4, D,L-1-(3'-Dimethylamino-2'-methylpropoxyimino)cyclododecane]", "Relative efficiency": 4.1}, {"compound": "CN(C)CCCON=C1CCCCCCCCCCC1", "note": "[Example 1, 1-(Dimethylamino-propoxyimino)cyclododecane]", "Relative efficiency": 1.4}, {"compound": "c1ccc(CN2CCN(CCCON=C3CCCCCCCCCCC3)CC2)cc1", "note": "[Example 6, 1-(N-Benzylpiperazinyl-propoxyimino)cyclododecane]", "Relative efficiency": 0.9}, {"compound": "CCN(CC)CCCON=C1CCCCCCCCCCC1", "note": "[Example 10, 1-(Diethylamino-propoxyimino)cyclododecane]", "Relative efficiency": 2.9}, {"compound": "CCN(CC)CC(C)CON=C1CCCCCCCCCCC1", "note": "(stereo not shown) [Example 11, 1-(3'-Diethylamino-2'-methyl-propoxyimino)cyclododecane]", "Relative efficiency": 2.6}, {"compound": "COc1ccc(Cc2nccc3cc(OC)c(OC)cc23)cc1OC", "note": "[Papaverine, reference compound]", "Relative efficiency": 1.0}]}, {"test_system": "ischiadic nerve (N. ischiadieus)", "experiment": "Local anaesthetizing effect on the ischiadic nerve of rats (method of Truant), Lidocaine as reference", "type": "in vivo", "settings": "0.25% concentration", "experimental": "(§2) The local anaesthetizing effect was investigated on the ischiadic nerve (N. ischiadieus) of rats by the method of Truant [A. P. Truant, d'Amato cited in A. P. Truant, S. Wiedling: Acta Chirurg. Scand. 116, 351 (1958)], by using Lidocaine as the reference substance. The number of animals showing the characteristic motoric paralysis and the duration of the effect were recorded. The relative efficiency with respect to Lidocaine and the duration of the effect observed on applying a 0.25% and 0.5% concentration are presented in Table 3.", "units": {"Duration of effect": "min"}, "values": [{"compound": "CC(CON=C1CCCCCCCCCCC1)CN(C)C", "note": "(racemic) [Example 4, D,L-1-(3'-Dimethylamino-2'-methylpropoxyimino)cyclododecane]", "Duration of effect": 32}, {"compound": "CN(C)CCCON=C1CCCCCCCCCCC1", "note": "[Example 1, 1-(Dimethylamino-propoxyimino)cyclododecane]", "Duration of effect": 45}, {"compound": "CN(C)CCON=C1CCCCCCCCCCC1", "note": "[Example 2, 1-(Dimethylamino-ethoxyimino)cyclododecane]", "Duration of effect": 23}, {"compound": "CC(C)N(CCON=C1CCCCCCCCCCC1)C(C)C", "note": "[Example 5, 1-(Diisopropylamino-ethoxyimino)cyclododecane]", "Duration of effect": 31}, {"compound": "c1ccc(CN2CCN(CCCON=C3CCCCCCCCCCC3)CC2)cc1", "note": "[Example 6, 1-(N-Benzylpiperazinyl-propoxyimino)cyclododecane]", "Duration of effect": 60}, {"compound": "CCN(CC)CCCON=C1CCCCCCCCCCC1", "note": "[Example 10, 1-(Diethylamino-propoxyimino)cyclododecane]", "Duration of effect": 76}, {"compound": "CCN(CC)CC(C)CON=C1CCCCCCCCCCC1", "note": "(stereo not shown) [Example 11, 1-(3'-Diethylamino-2'-methyl-propoxyimino)cyclododecane]", "Duration of effect": 151}, {"compound": "CC(C)N(CCCON=C1CCCCCCCCCCC1)C(C)C", "note": "[Example 12, 1-(Diisopropylamino-propoxyimino)cyclododecane]", "Duration of effect": 77}, {"compound": "CCN(CC)CC(=O)Nc1c(C)cccc1C", "note": "[Lidocaine, reference compound]", "Duration of effect": 24}]}, {"test_system": "ischiadic nerve (N. ischiadieus)", "experiment": "Local anaesthetizing effect on the ischiadic nerve of rats (method of Truant), Lidocaine as reference", "type": "in vivo", "settings": "0.5% concentration", "experimental": "as §2", "units": {"Duration of effect": "min"}, "values": [{"compound": "CC(CON=C1CCCCCCCCCCC1)CN(C)C", "note": "(racemic) [Example 4, D,L-1-(3'-Dimethylamino-2'-methylpropoxyimino)cyclododecane]", "Duration of effect": 105}, {"compound": "CN(C)CCCON=C1CCCCCCCCCCC1", "note": "[Example 1, 1-(Dimethylamino-propoxyimino)cyclododecane]", "Duration of effect": 95}, {"compound": "CN(C)CCON=C1CCCCCCCCCCC1", "note": "[Example 2, 1-(Dimethylamino-ethoxyimino)cyclododecane]", "Duration of effect": 57}, {"compound": "CC(C)N(CCON=C1CCCCCCCCCCC1)C(C)C", "note": "[Example 5, 1-(Diisopropylamino-ethoxyimino)cyclododecane]", "Duration of effect": 60}, {"compound": "c1ccc(CN2CCN(CCCON=C3CCCCCCCCCCC3)CC2)cc1", "note": "[Example 6, 1-(N-Benzylpiperazinyl-propoxyimino)cyclododecane]", "Duration of effect": 134}, {"compound": "CCN(CC)CCCON=C1CCCCCCCCCCC1", "note": "[Example 10, 1-(Diethylamino-propoxyimino)cyclododecane]", "Duration of effect": 104}, {"compound": "CCN(CC)CC(C)CON=C1CCCCCCCCCCC1", "note": "(stereo not shown) [Example 11, 1-(3'-Diethylamino-2'-methyl-propoxyimino)cyclododecane]", "Duration of effect": 240}, {"compound": "CC(C)N(CCCON=C1CCCCCCCCCCC1)C(C)C", "note": "[Example 12, 1-(Diisopropylamino-propoxyimino)cyclododecane]", "Duration of effect": 240}, {"compound": "CCN(CC)CC(=O)Nc1c(C)cccc1C", "note": "[Lidocaine, reference compound]", "Duration of effect": 28}]}, {"test_system": "ischiadic nerve (N. ischiadieus)", "experiment": "Local anaesthetizing effect on the ischiadic nerve of rats (method of Truant), Lidocaine as reference", "type": "in vivo", "settings": "local anaesthesia, relative to Lidocaine", "experimental": "as §2", "values": [{"compound": "CC(CON=C1CCCCCCCCCCC1)CN(C)C", "note": "(racemic) [Example 4, D,L-1-(3'-Dimethylamino-2'-methylpropoxyimino)cyclododecane]", "Relative efficiency": 0.63}, {"compound": "CN(C)CCCON=C1CCCCCCCCCCC1", "note": "[Example 1, 1-(Dimethylamino-propoxyimino)cyclododecane]", "Relative efficiency": 0.77}, {"compound": "CN(C)CCON=C1CCCCCCCCCCC1", "note": "[Example 2, 1-(Dimethylamino-ethoxyimino)cyclododecane]", "Relative efficiency": 0.67}, {"compound": "CC(C)N(CCON=C1CCCCCCCCCCC1)C(C)C", "note": "[Example 5, 1-(Diisopropylamino-ethoxyimino)cyclododecane]", "Relative efficiency": 0.71}, {"compound": "c1ccc(CN2CCN(CCCON=C3CCCCCCCCCCC3)CC2)cc1", "note": "[Example 6, 1-(N-Benzylpiperazinyl-propoxyimino)cyclododecane]", "Relative efficiency": 0.52}, {"compound": "CCN(CC)CCCON=C1CCCCCCCCCCC1", "note": "[Example 10, 1-(Diethylamino-propoxyimino)cyclododecane]", "Relative efficiency": 2.00}, {"compound": "CCN(CC)CC(C)CON=C1CCCCCCCCCCC1", "note": "(stereo not shown) [Example 11, 1-(3'-Diethylamino-2'-methyl-propoxyimino)cyclododecane]", "Relative efficiency": 1.86}, {"compound": "CC(C)N(CCCON=C1CCCCCCCCCCC1)C(C)C", "note": "[Example 12, 1-(Diisopropylamino-propoxyimino)cyclododecane]", "Relative efficiency": 1.68}, {"compound": "CCN(CC)CC(=O)Nc1c(C)cccc1C", "note": "[Lidocaine, reference compound]", "Relative efficiency": 1.0}]}]}
